pEC50, pKd: −log10 of the molar value. Calls of active or inactive are those of the source. No cut-off for these calls is given here.
Key:
[1] = test system: RAW264.7; experiment: Antiinflammatory activity in LPS-induced mouse RAW264.7 cells assessed as reduction in IL-6 level at 10 uM after 6 hrs by RT-PCR analysis; type: functional, cell-based
[2] = test system: RAW264.7; experiment: Antiinflammatory activity in LPS-induced mouse RAW264.7 cells assessed as reduction in IL27 level at 10 uM after 6 hrs by RT-PCR analysis; type: functional, cell-based
[3] = biological target: T1, Retinoic acid receptor RXR-alpha (Homo sapiens, UniProt P19793); experiment: Binding affinity to human RXRalpha LBD (T225 to T462 residues) by fluorescence quenching assay
T1 sequence (P19793 whole entry): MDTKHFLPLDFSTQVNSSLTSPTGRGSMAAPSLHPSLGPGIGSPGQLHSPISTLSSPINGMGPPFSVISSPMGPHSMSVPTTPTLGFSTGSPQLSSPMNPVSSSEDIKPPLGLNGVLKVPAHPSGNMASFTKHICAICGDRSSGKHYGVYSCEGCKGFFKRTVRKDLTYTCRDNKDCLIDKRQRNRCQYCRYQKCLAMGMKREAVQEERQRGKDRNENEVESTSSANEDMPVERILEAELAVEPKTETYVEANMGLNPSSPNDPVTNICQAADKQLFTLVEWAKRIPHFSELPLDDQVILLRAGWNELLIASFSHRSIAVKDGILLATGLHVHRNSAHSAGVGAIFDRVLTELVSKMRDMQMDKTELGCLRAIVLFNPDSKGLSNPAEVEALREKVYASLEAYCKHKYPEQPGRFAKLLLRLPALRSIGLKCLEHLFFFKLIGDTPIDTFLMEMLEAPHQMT

[4] = Induction of triglyceride level in Sprague-Dawley rat at 200 mg/kg in diet for 7 days (reference value: 89 +/- 10 mg/dl); type: functional; conditions: time 7 day
[5] = biological target: T2, Retinoic acid receptor RXR-alpha (Homo sapiens) (UniProt P19793); conditions: filed as agonist
T2 sequence (whole entry): T1 sequence (P19793 whole entry)
Description: Binding affinity to human RXRalpha LBD (T225 to T462 residues) assessed as gibbs free energy change by isothermal titration calorimetry

[6] = biological target: T1, Retinoic acid receptor RXR-alpha; experiment: Agonist activity at human GAL4-fused RXRalpha LBD (T225 to T462 residues) expressed in HEK293 cells incubated for 24 hrs by Dual-Glo luciferase assay; type: cell-based
[7] = test system: RAW264.7; experiment: Antiinflammatory activity in LPS-induced mouse RAW264.7 cells assessed as reduction in CCL5 level at 10 uM after 6 hrs by RT-PCR analysis; type: functional, cell-based
[8] = biological target: T2, Retinoic acid receptor RXR-alpha (Homo sapiens); conditions: filed as agonist; remark: listed apart in the source
Description: Binding affinity to human RXRalpha LBD (T225 to T462 residues) assessed as change in entropy by isothermal titration calorimetry

[9] = test system: RAW264.7; experiment: Antiinflammatory activity in LPS-induced mouse RAW264.7 cells assessed as reduction in Saa3 level at 10 uM after 6 hrs by RT-PCR analysis; type: functional, cell-based
[10] = Induction of triglyceride level in Sprague-Dawley rat at 200 mg/kg in diet for 7 days relative to control (reference value: 0 %); type: functional; conditions: time 7 day
[11] = biological target: T2, Retinoic acid receptor RXR-alpha (Homo sapiens); conditions: filed as agonist; remark: listed apart in the source
Description: Binding affinity to human RXRalpha LBD (T225 to T462 residues) assessed as change in enthalpy by isothermal titration calorimetry

[12] = test system: Mus musculus; experiment: Prevention of UVB-induced carcinogenesis in Ptch+/- / SHK-1 mouse assessed as reduction in tumor number at 25 mg/kg measured after twice a week of UVB irradiation for 34 weeks (reference value: 100 %); type: functional; parameters: scale not given: the % may be the effect or the level left
[13] = biological target: T1, Retinoic acid receptor RXR-alpha; experiment: Binding affinity to human RXRalpha LBD (T225 to T462 residues) assessed as binding constant by isothermal titration calorimetry
[14] = test system: RAW264.7; experiment: Antiinflammatory activity in LPS-induced mouse RAW264.7 cells assessed as reduction in CCL22 level at 10 uM after 6 hrs by RT-PCR analysis; type: functional, cell-based
[15] = test system: Mus musculus; experiment: Prevention of UVB-induced carcinogenesis in Ptch+/- / SHK-1 mouse assessed as reduction in tumor number at 25 mg/kg measured after twice a week of UVB irradiation for 34 weeks (reference value: 8.16 +/- 1.87); type: functional
[16] = test system: RAW264.7; experiment: Antiinflammatory activity in LPS-induced mouse RAW264.7 cells assessed as reduction in Csf3 level at 10 uM after 6 hrs by RT-PCR analysis; type: functional, cell-based
[17] = test system: RAW264.7; experiment: Antiinflammatory activity in LPS-induced mouse RAW264.7 cells assessed as reduction in IL-1beta level at 10 uM after 6 hrs by RT-PCR analysis; type: functional, cell-based
[18] = test system: Mus musculus; experiment: Prevention of UVB-induced carcinogenesis in Ptch+/- / SHK-1 mouse assessed as reduction in tumor number at 20 mg/kg measured after twice a week of UVB irradiation for 34 weeks; type: functional
[19] = test system: Epithelial cell; experiment: Upregulation of CRABP2 gene expression in human organotypic epithelial cells at 0.2 uM incubated for 9 days with replacement of fresh compounds every other day by qPCR analysis; type: functional, cell-based; conditions: time 9.0 day
[20] = test system: Epithelial cell; experiment: Downregulation of ACER1 gene expression in human organotypic epithelial cells at 0.2 uM incubated for 9 days with replacement of fresh compounds every other day by qPCR analysis; type: functional, cell-based; conditions: time 9.0 day
[21] = test system: Epithelial cell; experiment: Upregulation of RARG gene expression in human organotypic epithelial cells at 0.2 uM incubated for 9 days with replacement of fresh compounds every other day by qPCR analysis; type: functional, cell-based; conditions: time 9.0 day
[22] = test system: Epithelial cell; experiment: Upregulation of LRAT gene expression in human organotypic epithelial cells at 0.2 uM incubated for 9 days with replacement of fresh compounds every other day by qPCR analysis; type: functional, cell-based; conditions: time 9.0 day
[23] = test system: Epithelial cell; experiment: Upregulation of RDH10 gene expression in human organotypic epithelial cells at 0.2 uM incubated for 9 days with replacement of fresh compounds every other day by qPCR analysis; type: functional, cell-based; conditions: time 9.0 day
[24] = test system: Epithelial cell; experiment: Downregulation of MCM7 gene expression in human organotypic epithelial cells at 0.2 uM incubated for 9 days with replacement of fresh compounds every other day by qPCR analysis; type: functional, cell-based; conditions: time 9.0 day
[25] = test system: Epithelial cell; experiment: Downregulation of LOR gene expression in human organotypic epithelial cells at 0.2 uM incubated for 9 days with replacement of fresh compounds every other day by qPCR analysis; type: functional, cell-based; conditions: time 9.0 day
[26] = test system: Epithelial cell; experiment: Upregulation of RBP1 gene expression in human organotypic epithelial cells at 0.2 uM incubated for 9 days with replacement of fresh compounds every other day by qPCR analysis; type: functional, cell-based; conditions: time 9.0 day
[27] = test system: Epithelial cell; experiment: Upregulation of STRA6 gene expression in human organotypic epithelial cells at 0.2 uM incubated for 9 days with replacement of fresh compounds every other day by qPCR analysis; type: functional, cell-based; conditions: time 9.0 day
[28] = test system: Epithelial cell; experiment: Upregulation of RARB gene expression in human organotypic epithelial cells at 0.2 uM incubated for 9 days with replacement of fresh compounds every other day by qPCR analysis; type: functional, cell-based; conditions: time 9.0 day
[29] = Induction of triglyceride level in Sprague-Dawley rat at 150 mg/kg in diet for 7 days relative to control; type: functional; conditions: time 7 day
[30] = test system: Mus musculus; experiment: Prevention of UVB-induced carcinogenesis in Ptch+/- / SHK-1 mouse assessed as reduction in tumor number at 24 mg/kg measured after twice a week of UVB irradiation for 34 weeks (reference value: 8.16 +/- 1.87); type: functional
[31] = test system: Mus musculus; experiment: Prevention of UVB-induced carcinogenesis in Ptch+/- / SHK-1 mouse assessed as reduction in tumor number at 24 mg/kg measured after twice a week of UVB irradiation for 34 weeks (reference value: 100 %); type: functional; parameters: scale not given: the % may be the effect or the level left
[32] = Induction of triglyceride level in Sprague-Dawley rat at 60 mg/kg in diet for 7 days relative to control; type: functional; conditions: time 7 day

| pKd [3] | deltaG [5] [kcal/mol] | pEC50 [6] | TdeltaS [8] [kcal/mol] | deltaH [11] [kcal/mol] | pKd [13] | Compound | Activity [1] | Activity [2] | Activity [4] [mg/dL] | Activity [7] | Activity [9] | Activity [10] [%] | Activity [14] | Activity [16] | Activity [17] | other results |
| --- | --- | --- | --- | --- | --- | --- | --- | --- | --- | --- | --- | --- | --- | --- | --- | --- |
| 8.33 | -7.5 | 6.68 | 0.76 | -6.8 | 5.51 | CCCCC1=C(CCC(C)C)/C(=C/C(C)=C\C=C\C(C)=C\C(=O)O)CCC1 | Active | Active | 101 | Active | Active | 13 | Active | Active | Active | Activity [12]: 82%; Activity [15]: 1.44 |
|  |  |  |  |  |  | CC(=C/C=C/C(C)=C/C(=O)O)/C=C1\CCCc2ccccc21 [UAB-30] |  |  |  |  |  |  |  |  |  | Activity [18]: 5.4 |
| 8.39 | -7.5 | 7.64 | 2.38 | -5.1 | 5.46 | CCC(C)C1=C(CCC(C)C)/C(=C/C(C)=C\C=C\C(C)=C\C(=O)O)CCC1 (mixture of isomers) |  |  | 277 |  |  | 211 |  |  |  |  |
|  |  |  |  |  |  | CC(=C/C=C/C(C)=C/C(=O)O)/C=C1\CCCC(CCC(C)C)=C1CCC(C)C | Active | Active | 107 | Active | Active | 20 | Active | Active | Active | Activity [19]: Active; Activity [20]: Active; Activity [21]: Active; Activity [22]: Active; Activity [23]: Active; Activity [24]: Active; Activity [25]: Active; Activity [26]: Active; Activity [27]: Active; Activity [28]: Active |
|  |  |  |  |  |  | C=C(c1ccc(C(=O)O)cc1)c1cc2c(cc1C)C(C)(C)CCC2(C)C [BEXAROTENE] |  |  |  |  |  |  |  |  |  | Activity [29]: 350% |
| 8.44 | -7.8 | 7.21 | 0.38 | -7.4 | 5.70 | CCCC1=C(CCC(C)C)/C(=C/C(C)=C\C=C\C(C)=C\C(=O)O)CCC1 | Active | Active | 160 | Active | Active | 80 | Active | Active | Active | Activity [19]: Active; Activity [20]: Active; Activity [21]: Active; Activity [22]: Active; Activity [23]: Active; Activity [24]: Active; Activity [25]: Active; Activity [26]: Active; Activity [30]: 3; Activity [31]: 63%; Activity [27]: Active; Activity [28]: Active |
|  |  |  |  |  |  | CC1=C(/C=C/C(C)=C\C=C\C(C)=C\C(=O)O)C(C)(C)CCC1 [ALITRETINOIN] |  |  |  |  |  |  |  |  |  | Activity [32]: 400% |

— ChEMBL document CHEMBL5150029, “Conformationally Defined Rexinoids for the Prevention of Inflammation and Nonmelanoma Skin Cancers” (J Med Chem, 2022)
